Experimental data: patent US20260159465A1, “METHODS OF MAKING AND USING 1-METHYLEFFUSOL” (Laboratory for Synthetic Chemistry and Chemical Biology …, priority 2024, published 2026)

Legend:
MC3T3-E1 osteoblasts [1] = assay: Stimulation of alkaline phosphatase (ALP) activity as a marker of bone forming activity; type: cell-based; conditions: 0.5 μM and 1.5 μM, 4 days; ASC+b-GP as positive control
Method: Cells were treated with 0.5 μM and 1.5 μM concentrations of 1-Methyleffusol for 4 days and the alkaline phosphatase (ALP) activity, as a marker of bone forming activity, was measured. Ascorbate and beta-glycerophosphate treatment (ASC+b-GP) was performed as positive control for ALP induction.

MC3T3-E1 osteoblasts [2] = assay: Promotion of osteoblast mineralization: calcium deposition by Alizarin Red staining; type: cell-based; conditions: 1.5 or 5 mM in osteoblast mineralization medium (OM), 14 days
Method: Cells were treated with 1-Methyleffusol (1.5 or 5 mM) in osteoblast mineralization medium (OM) for 14 days, and the calcium deposition in the cell layer was measured by Alizarin Red staining (images not shown).

bone forming activities = conditions: prior studies (U.S. application Ser. No. 17/713,384; Chinese Application No. 202210551690.4); cited from earlier work

alkaline phosphatase (ALP) activity (MC3T3-E1 osteoblasts [1]): stimulate ALP activity
Compound: C=Cc1cc(O)c(C)c2c1-c1ccc(O)c(C)c1CC2 [1-Methyleffusol, 1,8-dimethyl-4-vinyl-9,10-dihydrophenanthrene-2,7-diol]
mineralization (calcium deposition in the cell layer, Alizarin Red staining) (MC3T3-E1 osteoblasts [2]): promoted mineralization
stimulation of bone forming activities (bone forming activities): exhibited the ability for stimulation of bone forming activities
